Patent US20240252454A1, “COMPOSITION COMPRISING AN INHIBITOR OF MITOCHONDRIAL TRANSCRIPTION” (LEAD DISCOVERY CENTER GMBH, priority 2021, published 2024)

Tests used:
[1] = PK and toxicological studies, plasma and liver concentrations; assay type: in vivo; details: oral combination of the IMT and Venetoclax in 0.5% methyl cellulose in water, NBSGW mice, 4 hours, plasma and liver (FIG. 4)
Protocol: Combinations s of 2-[(3R)-1-[(2R)-2-[4-(2-chloro-4-fluoro-phenyl)-2-oxo-chromen-7-yl]oxypropanoyl]-3-piperidyl]acetic acid and Venetoclax were administered orally in a formulation of 0.5% methyl cellulose in water, before the respective substance concentrations (y-axis) of Venetoclax (left) or 2-[(3R)-1-[(2R)-2-[4-(2-chloro-4-fluoro-phenyl)-2-oxo-chromen-7-yl]oxypropanoyl]-3-piperidyl]acetic acid (right) after 4 hours and extraction from blood plasma or liver tissue were analysed by LC-MS. Error bars indicate the standard deviation around the mean of the multiple measurements.
For this, a vehicle formulation suitable for the oral administration of the combination of Venetoclax and 2-[(3R)-1-[(2R)-2-[4-(2-chloro-4-fluoro-phenyl)-2-oxo-chromen-7-yl]oxypropanoyl]-3-piperidyl]acetic acid was prepared to examine its pharmacokinetic suitability. Since the formulations based on ethanol, PEG-400 and Phosal that have been published for Venetoclax have not proven to be suitable for generating an administrable solution or suspension of IMT and Venetoclax, a simplified formulation of 0.5% methyl cellulose in water was prepared, which was tested initially in PK and toxicological studies in NBSGW mice (FIG. 4). […] On the other hand, doses that could be safely used were established in this mouse model, with which the subsequent studies could be carried out.

[2] = test system: Venetoclax-resistant PDX AML cells; assay: in vivo PDX study in a Venetoclax-resistant model; details: NSGS mice
Text: A=overview of the study implementation (corresponding to FIG. 5A) in NSGS mice injected with spleenocytes (n=12). B=flow cytometric analysis and % of live hCD45+AML cells in peripheral blood, spleen and bone marrow of the treated groups; C=immunohistological analysis of bone marrow and spleen tissue sections stained with hcd45 (brown); Quantitative analysis of the hCD45+ cells from C with three technical replicates (n=2). E=blood analysis of the survival group; F=Kaplan-Meier survival analysis (n=6 per group). […] The procedure was similar to that previously described for the CDX model, except for the addition of an endpoint control cohort in each treatment group.

[3] = test system: MV4-11; assay: CellTiter-GLO (CTG) assay, combinatorial matrix; assay type: cell-based; details: MV4-11, CTG matrix of the IMT with Bcl-2 inhibitor (Venetoclax, Table 10), wide concentration range
Protocol: To determine the in vitro cellular viability, cellular ATP concentrations were measured using a luminescence-based homogenous assay format, as described here. […] Optimal cell density for each cell line was determined to guarantee linearity. For viability assays with compounds, cells were then seeded at a density of 200 to 1000 per well in 25 μl in 384-well plates (Greiner Bio-One, Frickenhausen, Germany). After overnight incubation at 37° C./5% CO2, 25 nl or 75 nl compounds were added to each sample well by using BIOMEK FXP Laboratory Automation Workstation (Beckman Coulter, USA). Wells with cells and 0.1% or 0.3% DMSO in culture medium were used as positive controls, wells with cells and 10 μM staurosporine (Selleck Chemicals, Huston, USA) in culture medium were used as negative controls. […] Luminescence was measured by Envision Plate Reader (Perkin Elmer, USA). […]
The general suitability of IMT substances for a combination with standard inhibitors of the Bcl-2 signalling pathway was first determined in in vitro cell culture experiments in a matrix format (Table 10). The changes in the cellular ATP content, as an indicator of the metabolic activity of the cells, were measured using the CellTiter-GLO Assay (CTG), as described in Example 1).

[4] = test system: OCI-AML3; assay: apoptosis induction, flow cytometry; assay type: cell-based; details: IMT alone, flow cytometry (FIG. 3)
Protocol: (§1) This analysis was carried out using flow cytometry and the established cellular markers for necrosis, apoptosis and living cells.
(§2) These experiments were followed by a broader analysis of the apoptosis induction by the inhibitor combination used in the four AML cell lines MV4-11, MOLM-13, OCI-AML3 and OCI-AML2 (FIG. 3). This analysis was carried out using flow cytometry and the established cellular markers for necrosis, apoptosis and living cells.

[5] = test system: OCI-AML2; assay: apoptosis induction, flow cytometry; assay type: cell-based; details: IMT alone, flow cytometry (FIG. 3)
Protocol: as §1, §2

[6] = test system: MV4-11; assay: apoptosis induction, flow cytometry; assay type: cell-based
Protocol: as §1, §2

[7] = test system: MOLM-13; assay: apoptosis induction, flow cytometry; assay type: cell-based
Protocol: as §1, §2

[8] = IMT alone, flow cytometry (FIG. 3)
[9] = IMT combined with Venetoclax, compared to Venetoclax alone

In the case of C[C@@H](Oc1ccc2c(-c3ccc(F)cc3Cl)cc(=O)oc2c1)C(=O)N1CCC[C@H](CC(=O)O)C1 [2-[(3R)-1-[(2R)-2-[4-(2-chloro-4-fluoro-phenyl)-2-oxo-chromen-7-yl]oxypropanoyl]-3-piperidyl]acetic acid], the “PK parameters, in particular the plasma and tissue concentrations” value [1] is reported as “do not significantly influence one another”, the “tumour load and circulating hCD45-positive AML cells” value ([2]; IMT combined with Venetoclax vs individual inhibitors or control, peripheral blood, bone marrow, spleen (FIG. 6)) is reported as “significantly lower” and the “overall survival (survival analysis)” value ([2]; IMT/Bcl-2i combination, treatment lasting 21 days) is reported as “long-lasting, synergistic effect”. For the same compound, the “combinatorial effect (cellular ATP content)” value [3] was “additive or even synergistic effect”, the induction of apoptosis [4] was “cannot trigger apoptosis” and the induction of apoptosis [5] was “cannot trigger apoptosis”. For the same compound, the induction of apoptosis [6, 8] was “cannot trigger apoptosis”, the induction of apoptosis [6, 9] was “increases the induction of apoptosis significantly” and the induction of apoptosis [7, 8] was “cannot trigger apoptosis”. The induction of apoptosis [7, 9] was “increases the induction of apoptosis significantly”.
